The target in assay [1] is T1, Tdp1 (Homo sapiens (Human), UniProt Q9NUW8). The experiment in a line: Gel-based assay measuring the inhibition of recombinant Tdp1.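 Further: 5′-32P-labeled single-stranded DNA with 3′-phosphotyrosine incubated with 5 pM enzyme for 15 min at room temperature, inhibition seen as loss of 3′-phosphate product band by densitometry.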 It is filed as biochemical.
Procedure: Tdp1 inhibitory activity was measured by the drug's ability to inhibit the hydrolysis of the phosphodiester linkage between tyrosine and the 3′-end of the DNA substrate, and to prevent the generation of an oligonucleotide with a free 3′-phosphate (N14P). Therefore, the disappearance of the gel band for N14P indicated Tdp1 inhibition.
Gel-Based Assay Measuring the Inhibition of Recombinant Tdp1. A 5′-[^32P]-labeled single-stranded DNA oligonucleotide containing a 3′-phosphotyrosine (N14Y) was generated as described by Dexheimer et al. The DNA substrate was then incubated with 5 pM recombinant Tdp1 in the absence or presence of inhibitor for 15 min at room temperature in a buffer containing 50 mM Tris HCl, pH 7.5, 80 mM KCl, 2 mM EDTA, 1 mM DTT, 40 μg/ml BSA and 0.01% Tween-20. […] Gel images were scanned using a Typhoon 8600 (GE Healthcare) and densitometric analyses were performed using the ImageQuant software (GE Healthcare).
Another assay relates to HOP-62. The experiment in a line: NCI screen cytotoxicity, lung HOP-62. The settings on record: Homo sapiens, 50% growth inhibition. It is filed as cell-based.
In another assay the test system is HCT-116. Nature of the assay: NCI screen cytotoxicity, colon HCT-116. It is filed as cell-based. The settings on record: Homo sapiens, 50% growth inhibition.
The subject of the next assay is SF-539. Nature of the assay: NCI screen cytotoxicity, CNS SF-539. It is filed as cell-based. The following applies: Homo sapiens, read-out: Cytotoxicity (GI50 in μM) CNS SF-539; 50% growth inhibition.
A further assay concerns UACC-62. Nature of the assay: NCI screen cytotoxicity, melanoma UACC-62. The settings on record: Homo sapiens, 50% growth inhibition. It counts as cell-based.
A further assay relates to SN12C. The experiment in a line: NCI screen cytotoxicity, renal SN12C. The following applies: Homo sapiens, 50% growth inhibition. It counts as cell-based.
Another assay relates to DU-145. The experiment in a line: NCI screen cytotoxicity, prostate DU-145. It counts as cell-based. The settings on record: Homo sapiens, DU-145, read-out: Cytotoxicity (GI50 in μM) prostate DU-145; 50% growth inhibition.
The subject of the next assay is MDA-MB-435. Nature of the assay: NCI screen cytotoxicity, breast MDA-MB-435. The settings on record: Homo sapiens, MDA-MB-435, read-out: Cytotoxicity (GI50 in μM) breast MDA-MB-435; 50% growth inhibition. It is filed as cell-based.
The test system of another assay is OVCAR-3. The experiment in a line: NCI screen cytotoxicity, ovarian OVCAR-3. The settings on record: Homo sapiens, OVCAR-3, read-out: Cytotoxicity (GI50 in μM) ovarian OVCAR-3.
Assay [2] relates to all human cancer cell lines successfully tested. The experiment in a line: NCI screen, mean graph midpoint (MGM) for growth inhibition. The settings on record: for GI50: Homo sapiens; for MGM: series (B), mean graph midpoint GI50, ± standard error where two determinations.
The target of a further assay is Human recombinant Top1 (Homo sapiens (Human), UniProt P11387). Nature of the assay: Topoisomerase I-mediated DNA cleavage reactions.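 On all read-outs here: 3′-end radiolabeled DNA substrate (about 2 nM) incubated with recombinant Top1 and compound for 20 min at 25 °C, cleavage products resolved by denaturing PAGE and phosphoimaging.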 It is filed as biochemical. The following applies: for Top1 (compound-induced DNA cleavage, semiquantitative scale): series (B), relative to 1 μM camptothecin (90) or MJ-III-65 (91); for Top1 inhibition (semiquantitative scale): series (A); for Top1 inhibition (semiquantitative scale) / Top1 (compound-induced DNA cleavage due to Top1 inhibition): relative to 1 μM camptothecin; for Top1 (compound-induced DNA cleavage due to Top1 inhibition): semiquantitative.
Sequence of Human recombinant Top1 (P11387 whole entry): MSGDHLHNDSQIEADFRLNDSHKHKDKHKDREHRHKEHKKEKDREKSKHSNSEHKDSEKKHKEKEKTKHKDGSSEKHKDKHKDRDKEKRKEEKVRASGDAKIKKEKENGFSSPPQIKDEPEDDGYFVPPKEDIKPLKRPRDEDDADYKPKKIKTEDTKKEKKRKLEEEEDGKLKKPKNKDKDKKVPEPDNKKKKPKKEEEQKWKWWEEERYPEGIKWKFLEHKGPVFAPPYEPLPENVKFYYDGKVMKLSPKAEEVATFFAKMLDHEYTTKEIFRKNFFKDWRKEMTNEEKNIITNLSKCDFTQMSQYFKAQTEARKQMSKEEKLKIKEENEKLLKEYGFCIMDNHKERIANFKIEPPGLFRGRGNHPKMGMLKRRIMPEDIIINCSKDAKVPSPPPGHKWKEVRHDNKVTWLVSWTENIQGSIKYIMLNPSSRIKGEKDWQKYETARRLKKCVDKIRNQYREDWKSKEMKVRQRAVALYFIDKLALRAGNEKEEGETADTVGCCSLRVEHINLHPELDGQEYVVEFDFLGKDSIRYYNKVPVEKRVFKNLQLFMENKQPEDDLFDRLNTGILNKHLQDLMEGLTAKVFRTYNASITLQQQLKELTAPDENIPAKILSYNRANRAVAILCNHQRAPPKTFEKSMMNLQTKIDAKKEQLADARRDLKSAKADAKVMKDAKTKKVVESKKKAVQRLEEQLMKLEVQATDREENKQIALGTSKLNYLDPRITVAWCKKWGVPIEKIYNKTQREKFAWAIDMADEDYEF

Assay [3] concerns the target T1, Tdp1. Nature of the assay: Surface plasmon resonance analysis. It is filed as binding. The following applies: immobilized Tdp1. For orientation: SPR reads the build-up and loss of mass on a sensor chip optically.
Procedure: Surface Plasmon Resonance Analysis. Binding experiments were performed on a Biacore T100 instrument (GE, Piscataway N.J.). Tdp1 was amine coupled to a CM5 sensor chip (GE Healthcare, Piscataway N.J.). […] (EDC), N-hydroxysuccinimide (NHS) and ethanolamine were purchased from GE Heathcare, (Piscataway N.J.). Neutravidin was obtained from Pierce. In order to protect the amine groups within the active site from modification, Tdp1 was bound with a 14-base oligonucleotide before coupling to the surface. […] The CM5 chip surface was activated for 7 min. with 0.1 M NHS and 0.4 M EDC at a flow rate of 20 μL/min and Tdp1-oligonucleotide mixture was injected until approximately 4000 RU's was attached. Activated amine groups were quenched with an injection of 1 M solution of ethanolamine pH 8.0 for 7 min. Any bound oligonucleotide was removed by washing the surface with 1 M NaCl. A reference surface was prepared in the same manner without coupling of Tdp1. […] Following compound injections, the surface was regenerated with a 30 second injection 1 M NaCl, a 30 second injection of 50% DMSO (v/v) and a 30 second running buffer injection. Each cycle of compound injection was followed by buffer cycle for referencing purposes. A DMSO calibration curve was included to correct for refractive index mismatches between the running buffer and compound dilution series.
Surface Plasmon Resonance Analysis. […]
The target in assay [4] is endogenous human Tdp1 in whole cell extract (Homo sapiens (Human), UniProt Q9NUW8). Nature of the assay: Gel-based assay measuring the inhibition of endogenous human Tdp1 in whole cell extract. It is filed as biochemical. The following applies: human Tdp1 in whole cell extract (WCE). On the procedure: Gel-Based Assay Measuring the Inhibition of Endogenous Human Tdp1 in Whole Cell Extract. 1×10^7 DT40 knockout cells for chicken Tdp1 and complemented with human Tdp1 were collected, washed and centrifuged. Cell pellet was then resuspended with 100 μL of CellLytic M Cell Lysis Reagent (SIGMA-Aldrich C2978). After 15 min, the lysate was centrifuged at a 12,000 g for 10 min and the supernatant was transferred to a new tube. Protein concentration was determined using a nanodrop spectrophotometer (Invitrogen) and the whole cell extract was stored at −80° C. […] Reactions were then treated similarly to the recombinant enzyme containing samples (see section above).
Sequence of endogenous human Tdp1 in whole cell extract (Q9NUW8 whole entry): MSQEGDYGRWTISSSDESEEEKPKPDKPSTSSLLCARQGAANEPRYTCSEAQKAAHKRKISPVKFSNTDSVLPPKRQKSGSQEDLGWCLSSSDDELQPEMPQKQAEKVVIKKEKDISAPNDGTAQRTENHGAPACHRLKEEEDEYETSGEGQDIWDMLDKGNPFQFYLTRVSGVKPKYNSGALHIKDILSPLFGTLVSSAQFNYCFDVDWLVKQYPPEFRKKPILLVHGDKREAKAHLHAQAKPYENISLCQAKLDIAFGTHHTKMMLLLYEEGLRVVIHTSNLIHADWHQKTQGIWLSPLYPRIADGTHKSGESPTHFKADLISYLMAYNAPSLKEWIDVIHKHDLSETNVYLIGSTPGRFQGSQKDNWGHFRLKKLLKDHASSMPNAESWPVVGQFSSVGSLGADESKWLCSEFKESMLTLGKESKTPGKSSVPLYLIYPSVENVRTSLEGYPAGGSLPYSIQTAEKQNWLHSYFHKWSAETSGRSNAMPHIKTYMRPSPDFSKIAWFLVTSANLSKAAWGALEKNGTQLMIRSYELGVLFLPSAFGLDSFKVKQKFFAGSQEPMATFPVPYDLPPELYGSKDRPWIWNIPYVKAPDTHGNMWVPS
All compounds were first tested in gel based assays for Tdp1 inhibition using recombinant (rec.) human Tdp1 and only the active compounds were tested for human Tdp1 inhibition in whole cell extract (WCE). […] was included in all experiments as positive control.

In assay [5] the target is T1, Tdp1. The following applies: known inhibitor; cited from earlier work.
Where [6] appears, read: series (A), gel-based assay, rec. human Tdp1, read-out: IC50 (μM) recombinant Tdp1.

Read-outs that look alike come from different tables or passages of the source.

T1 sequence (Q9NUW8 whole entry): as above
Procedure for Human recombinant Top1: Additionally, all indenoisoquinoline sulfonates and sulfonamides were tested for Top1 cleavage complex poisoning in a Top1-mediated DNA cleavage assay.
Topoisomerase I-Mediated DNA Cleavage Reactions. Human recombinant Top1 was purified from baculovirus as previously described. DNA cleavage reactions were prepared as previously reported with the exception of the DNA substrate. […] Unincorporated [^32P]dGTP was removed using mini Quick Spin DNA columns (Roche, Indianapolis, Ind.), and the eluate containing the 3′-end-labeled DNA substrate was collected. Approximately 2 nM radiolabeled DNA substrate was incubated with recombinant Top1 in 20 μL of reaction buffer [10 mM Tris-HCl (pH 7.5), 50 mM KCl, 5 mM MgCl2, 0.1 mM EDTA, and 15 μg/mL BSA] at 25° C. for 20 min in the presence of various concentrations of compounds. The reactions were terminated by adding SDS (0.5% final concentration) followed by the addition of two volumes of loading dye (80% formamide, 10 mM sodium hydroxide, 1 mM sodium EDTA, 0.1% xylene cyanol, and 0.1% bromphenol blue). Aliquots of each reaction mixture were subjected to 20% denaturing PAGE. Gels were dried and visualized by using a phosphoimager and ImageQuant software (Molecular Dynamics).
Topoisomerase I-Mediated DNA Cleavage Reactions. Top1 reactions were performed as recently described. […] The reactions were terminated by adding SDS (0.5% final concentration) followed by the addition of two volumes of loading dye (80% formamide, 10 mM sodium hydroxide, 1 mM sodium EDTA, 0.1% xylene cyanol, and 0.1% bromphenol blue). Reactions were subjected to 20% denaturing PAGE. Gels were dried and visualized by using a Typhoon 8600 and ImageQuant software (Molecular Dynamics).

For the compound `CCOC(=O)CNc1ccc2c3c(n(CCCN)c(=O)c2c1)-c1ccccc1C3=O.Cl` [Compound 40 of (B), Ethyl 2-[(6-(3-Aminopropyl)-5,11-dioxo-6,11-dihydro-5H-indeno[1,2-c]isoquinolin-3-yl)amino]acetate Hydrochloride], the “Tdp1 inhibitory activity (in words)” value at Tdp1 [1] was “active”. Moreover, on Tdp1 [1] (read-out: Tdp1 (μM) IC50), the concentration for half-maximal inhibition (IC50) came out at 11 ± 5 µM. Further, the GI50 in the assay on HOP-62 was determined as 0.93 µM; in the assay with HCT-116 it was 0.44 µM; in the assay with SF-539 it was 8.91 µM; in the assay on UACC-62, 2.25 µM; in the assay with SN12C, 1.75 µM; in the assay with DU-145, 1.68 µM. In addition, the GI50 was 3.05 µM in the assay on MDA-MB-435, 3.12 µM with OVCAR-3 and 1.69 µM in assay [2] (read-out: MGM (μM)).

As to `Cl.NCCCn1c2c(c3ccc(NCC(=O)O)cc3c1=O)C(=O)c1ccccc1-2` [Compound 43 of (B), 2-((6-(3-Aminopropyl)-5,11-dioxo-6,11-dihydro-5H-indeno[1,2-c]isoquinolin-3-yl)amino)acetic Acid Hydrochloride], the half-inhibitory concentration (IC50) at Tdp1 [1] (series (B), determined by quadruplicate, read-out: Tdp1 (μM) IC50) was 5 ± 1.4 µM. On Human recombinant Top1, the “Top1 (compound-induced DNA cleavage, semiquantitative scale)” value came out at 0. Further, the GI50 in the assay with HOP-62 was determined as 0.65 µM; in the assay on HCT-116, 0.33 µM; in the assay on SF-539 it was 1.79 µM; in the assay on UACC-62, 0.72 µM; with SN12C, 0.49 µM; in the assay on DU-145 it was 1.51 µM. Also, the GI50 in the assay with MDA-MB-435 came to 1.14 µM; in the assay with OVCAR-3 it was 1.6 µM; in [2] (read-out: MGM (μM)) it was 0.87 ± 0.014 µM.

On to `COc1ccc2c(c1)-c1c(c3ccc([N+](=O)[O-])cc3c(=O)n1CCCN)C2=O.Cl` [Compound 51 of (B), 6-(3-Aminopropyl)-5,6-dihydro-8-methoxy-3-nitro-5,11-dioxo-11H-indeno[1,2-c]isoquinoline Hydrochloride], for which the IC50 on Tdp1 [1] (read-out: Tdp1 (μM) IC50) amounted to 15 ± 3 µM. Moreover, at Human recombinant Top1, the “Top1 (compound-induced DNA cleavage, semiquantitative scale)” value was “++”. The GI50 with HCT-116 was 0.06 µM; in the assay with SF-539, 0.61 µM; in the assay on SN12C, 0.15 µM; in the assay on DU-145 it was 0.18 µM; with MDA-MB-435 it was 0.58 µM; in the assay with OVCAR-3 it was 0.54 µM. The GI50 in assay [2] (read-out: MGM (μM)) turned out to be 0.17 ± 0.017 µM.

Regarding `COc1ccc2c(c1)-c1c(c3ccc([N+](=O)[O-])cc3c(=O)n1CCCn1ccnc1)C2=O` [Compound 52 of (B), 6-(3-(1H-Imidazol-1-yl)propyl)-8-methoxy-3-nitro-5H-indeno[1,2-c]isoquinoline-5,11(6H)-dione], at Tdp1 [1], the “Tdp1 (IC50, semiquantitative scale)” value is “(+)”. In addition, the “Tdp1 inhibitory activity (in words)” value on Tdp1 [1] is “very weak or inactive”. Moreover, the “suppression of DNA cleavage at high drug concentration” value at Human recombinant Top1 (100 μM) is listed as “slight suppression”. Also, the “Top1 (compound-induced DNA cleavage, semiquantitative scale)” value at Human recombinant Top1 was “+++”. Further, the GI50 with HOP-62 was less than 0.01 µM; in the assay on HCT-116, less than 0.01 µM; in the assay with UACC-62 it was less than 0.01 µM; in the assay on SN12C, less than 0.01 µM; with DU-145 it was less than 0.01 µM; with MDA-MB-435 it was 0.03 µM. Besides, the GI50 amounted to 0.03 µM in the assay with OVCAR-3 and 0.02 µM in assay [2] (read-out: MGM (μM)). The “MGM” value in assay [2] (listed as 52) turned out to be 0.02 ± 0.0006 µM.

With `COc1ccc2c(c1)-c1c(c3ccc([N+](=O)[O-])cc3c(=O)n1CCCN1CCOCC1)C2=O` [Compound 53 of (B), 8-Methoxy-6-(3-morpholinopropyl)-3-nitro-5H-indeno[1,2-c]isoquinoline-5,11(6H)-dione], on Tdp1 [1], the IC50 is more than 111 µM and the “Tdp1 inhibitory activity (in words)” value is “very weak or inactive”. Further, at Human recombinant Top1, the “Top1 (compound-induced DNA cleavage, semiquantitative scale)” value was “++”.

For `COc1ccc2c(c1)C(=O)c1c-2n(CCCN)c(=O)c2cc([N+](=O)[O-])ccc12` [Compound 54 of (B)], the GI50 in the assay on HOP-62 was less than 0.01 µM; in the assay on HCT-116, less than 0.01 µM; in the assay with UACC-62, less than 0.01 µM; in the assay on SN12C, less than 0.01 µM; in assay [2] (read-out: MGM (μM)), 0.02 µM. The “MGM” value in [2] (listed as 54) came to 0.02 ± 0.0008 µM.

Consider `NCCCn1c2c(c3ccc(N)cc3c1=O)C(=O)c1ccccc1-2` [Compound 62 of (B)], for which the GI50 came out at 0.27 µM with HOP-62; 0.18 µM with HCT-116; 0.34 µM with SF-539; 0.3 µM in the assay with UACC-62; 0.23 µM in the assay on SN12C; 0.12 µM in the assay with DU-145. The GI50 in the assay with MDA-MB-435 is 0.23 µM; with OVCAR-3, 0.13 µM; in [2] (read-out: MGM (μM)), 0.16 µM.

For the compound `O=C1c2ccccc2-c2c1c1ccc([N+](=O)[O-])cc1c(=O)n2CCCO` [Compound 63 of (B)], the GI50 turned out to be 0.19 µM in the assay on HCT-116; 0.31 µM in the assay on UACC-62; 0.47 µM in the assay with SN12C; 0.43 µM with DU-145; 1.97 µM in the assay on MDA-MB-435; 0.87 µM in the assay with OVCAR-3. For the same compound, in assay [2] (read-out: MGM (μM)), the GI50 was determined as 0.89 ± 0.22 µM.

As to `Cl.NCCCn1c2c(c3ccccc3c1=O)C(=O)c1ccccc1-2` [Compound 70 of (A)], the “Top1 inhibition (semiquantitative scale)” value at Human recombinant Top1 is “+++ (between 75% and 95% activity)”. Further, the “binding to Tdp1 by surface plasmon resonance” value on Tdp1 [3] is given as “direct binding”.

In the case of `Cl.NCCCCCCCCCCCn1c2c(c3ccccc3c1=O)C(=O)c1ccccc1-2` [Compound 78 of (A)], at Tdp1 [1] (setting [6]), the IC50 is 13 µM. Besides, the “Top1 (compound-induced DNA cleavage due to Top1 inhibition)” value on Human recombinant Top1 was “+ (between 20 and 50%, activity)”.

For `Cl.NCCCCCCCCCCCCn1c2c(c3ccccc3c1=O)C(=O)c1ccccc1-2` [Compound 79 of (A)], on Tdp1 [1] (setting [6]), the IC50 turned out to be 15 µM. Moreover, on Human recombinant Top1, the “Top1 (compound-induced DNA cleavage due to Top1 inhibition)” value was 0/+.

Regarding `O=C1c2ccccc2-c2c1c1ccccc1c(=O)n2CCCNCCCNCCCn1c2c(c3ccccc3c1=O)C(=O)c1ccccc1-2` [Compound 145 of (A), Bis-1,3-{(5,6-dihydro-5,11-diketo-11 H-indeno[1,2-c]isoquinoline)-6-propyl-amino}propane Bis(trifluoroacetate)], the results for the concentration for half-maximal inhibition (IC50) (on Tdp1 [1]; in assay [4]) were 1.5 µM and 1900 nM, respectively. Moreover, on Human recombinant Top1, the “Top1 inhibition (semiquantitative scale)” value is given as “++++”. The GI50 in assay [2] (read-out: MGM GI50) was 0.394 µM.

Take `[O]=[V]([O-])([O-])[O-]` [vanadate]: the “Tdp1 inhibition (in words)” value at Tdp1 [5] is given as “inhibition at millimolar concentrations”.

The IC50 is the concentration that inhibits the measured activity by half.

(Values after patent publication US8912213B2, “Synthesis and use of dual tyrosyl-DNA phosphodiesterase I (TDP1)- topoisomerase I (TOP1) inhibitors” (Purdue Research Foundation, priority 2012, dated 2014).)
